Species on record: Rattus norvegicus
Assay: Open TG-GATES - Regimen: Daily Repeat
Format: toxicity, organism-based, Sprague-Dawley
Parameters: regimen Daily Repeat, gender Male, age 6 weeks
Conditions: in vivo, po, 300 mg/kg, route gavage, dose level Middle; for APTT / Bas / Eos / Fbg / Hb / Ht / Lym / MCH / MCHC / MCV / Mono / Neu / PT / Plat / RBC / Ret / WBC: tissue Blood; for KIDNEY_L / KIDNEY_R / KIDNEY_TOTAL: tissue Kidney; for LIVER: tissue Liver; for A/G / ALP / ALT / AST / BUN / CRE / Ca / Cl / DBIL / GLC / IP / K / LDH / Na / PL / RALB / TBIL / TC / TG / TP / gamma-GTP: tissue Plasma

In the case of `CCOC(=O)CCC(=O)O[C@H]1[C@H](O[C@@H]2[C@@H](C)[C@H](O[C@H]3C[C@@](C)(OC)[C@@H](O)[C@H](C)O3)[C@@H](C)C(=O)O[C@H](CC)[C@@](C)(O)[C@H](O)[C@@H](C)C(=O)[C@H](C)C[C@@]2(C)O)O[C@H](C)C[C@@H]1N(C)C` [ERYTHROMYCIN ETHYLSUCCINATE], the TERMINAL_BW (72 h, time 3 day) is reported as 237.7 g, the APTT (72 h, time 3 day) is reported as 21.3 s and the Bas (72 h, time 3 day) is reported as 0%. It also gave an Eos (72 h, time 3 day) of 1%, a Fbg (72 h, time 3 day) of 311.6 mg/dL and a Hb (72 h, time 3 day) of 13.5 g/dL. The Ht (72 h, time 3 day) was 39.3%, the Lym (72 h, time 3 day) was 83.2% and the MCH (72 h, time 3 day) was 21.5 pg. The MCHC (72 h, time 3 day) was 34.4%, the MCV (72 h, time 3 day) was 62.7 fL and the Mono (72 h, time 3 day) was 3%. It also gave a Neu (72 h, time 3 day) of 11.8%, a PT (72 h, time 3 day) of 15.8 s and a Plat (72 h, time 3 day) of 114.1 x10_4/uL. The RBC (72 h, time 3 day) was 627.6 x10_4/ul, the Ret (72 h, time 3 day) was 5.1% and the WBC (72 h, time 3 day) was 94.1 x10_2/uL. The KIDNEY_L (72 h, time 3 day) was 1 g, the KIDNEY_R (72 h, time 3 day) was 1 g and the KIDNEY_TOTAL (72 h, time 3 day) was 2 g. For the same compound, the LIVER (72 h, time 3 day) was 10.9 g, the A/G (72 h, time 3 day) was 1.2 and the ALP (72 h, time 3 day) was 1728.8 IU/L. For the same compound, the ALT (72 h, time 3 day) was 44 IU/L, the AST (72 h, time 3 day) was 76 IU/L and the BUN (72 h, time 3 day) was 18.6 mg/dL. It also gave a CRE (72 h, time 3 day) of 0.2 mg/dL, a Ca (72 h, time 3 day) of 10.4 mg/dL and a Cl (72 h, time 3 day) of 108 meq/L. For the same compound, the DBIL (72 h, time 3 day) was 0 mg/dL, the GLC (72 h, time 3 day) was 192.6 mg/dL and the IP (72 h, time 3 day) was 7.3 mg/dL. It also gave a K (72 h, time 3 day) of 4.2 meq/L, an LDH (72 h, time 3 day) of 261 IU/L and a Na (72 h, time 3 day) of 141.2 meq/L. For the same compound, the PL (72 h, time 3 day) was 133.8 mg/dL, the RALB (72 h, time 3 day) was 3 g/dL and the TBIL (72 h, time 3 day) was 0.016 mg/dL. The TC (72 h, time 3 day) was 72.2 mg/dL, the TG (72 h, time 3 day) was 100.6 mg/dL and the TP (72 h, time 3 day) was 5.5 g/dL. The gamma-GTP (72 h, time 3 day) was 1.4 IU/L, the TERMINAL_BW ([…], time 7 day) was 269.9 g and the TERMINAL_BW ([…], time 14 day) was 321.9 g. For the same compound, the TERMINAL_BW ([…], time 28 day) was 391.2 g, the APTT ([…], time 7 day) was 22.2 s and the Bas ([…], time 7 day) was 0%. For the same compound, the Eos ([…], time 7 day) was 1%, the Fbg ([…], time 7 day) was 331.6 mg/dL and the Hb ([…], time 7 day) was 13.7 g/dL. For the same compound, the Ht ([…], time 7 day) was 40.6%, the Lym ([…], time 7 day) was 84.8% and the MCH ([…], time 7 day) was 20.9 pg. It also gave an MCHC ([…], time 7 day) of 33.6%, an MCV ([…], time 7 day) of 62.3 fL and a Mono ([…], time 7 day) of 2.2%. For the same compound, the Neu ([…], time 7 day) was 11.2%, the PT ([…], time 7 day) was 16.3 s and the Plat ([…], time 7 day) was 120.3 x10_4/uL. For the same compound, the RBC ([…], time 7 day) was 653 x10_4/ul, the Ret ([…], time 7 day) was 6.3% and the WBC ([…], time 7 day) was 86.1 x10_2/uL. The APTT ([…], time 14 day) was 22.1 s, the Bas ([…], time 14 day) was 0% and the Eos ([…], time 14 day) was 1%. The Fbg ([…], time 14 day) was 335.6 mg/dL, the Hb ([…], time 14 day) was 14.1 g/dL and the Ht ([…], time 14 day) was 40.7%. For the same compound, the Lym ([…], time 14 day) was 87.4%, the MCH ([…], time 14 day) was 20.5 pg and the MCHC ([…], time 14 day) was 34.7%. The MCV ([…], time 14 day) was 58.9 fL, the Mono ([…], time 14 day) was 2.2% and the Neu ([…], time 14 day) was 8.2%. It also gave a PT ([…], time 14 day) of 16.1 s, a Plat ([…], time 14 day) of 116 x10_4/uL and an RBC ([…], time 14 day) of 690 x10_4/ul. For the same compound, the Ret ([…], time 14 day) was 4.9%, the WBC ([…], time 14 day) was 110.3 x10_2/uL and the APTT ([…], time 28 day) was 24.1 s. It also gave a Bas ([…], time 28 day) of 0%, an Eos ([…], time 28 day) of 1.2% and a Fbg ([…], time 28 day) of 339.2 mg/dL. For the same compound, the Hb ([…], time 28 day) was 15.6 g/dL, the Ht ([…], time 28 day) was 45.3% and the Lym ([…], time 28 day) was 85.4%. The MCH ([…], time 28 day) was 19 pg, the MCHC ([…], time 28 day) was 34.3% and the MCV ([…], time 28 day) was 55.3 fL. For the same compound, the Mono ([…], time 28 day) was 2.4%, the Neu ([…], time 28 day) was 9.2% and the PT ([…], time 28 day) was 16 s. For the same compound, the Plat ([…], time 28 day) was 99.2 x10_4/uL, the RBC ([…], time 28 day) was 819.8 x10_4/ul and the Ret ([…], time 28 day) was 2.5%. It also gave a WBC ([…], time 28 day) of 96.8 x10_2/uL, a KIDNEY_L ([…], time 7 day) of 1.1 g and a KIDNEY_R ([…], time 7 day) of 1.1 g. The KIDNEY_TOTAL ([…], time 7 day) was 2.2 g, the KIDNEY_L ([…], time 14 day) was 1.3 g and the KIDNEY_R ([…], time 14 day) was 1.3 g. For the same compound, the KIDNEY_TOTAL ([…], time 14 day) was 2.6 g, the KIDNEY_L ([…], time 28 day) was 1.4 g and the KIDNEY_R ([…], time 28 day) was 1.4 g. For the same compound, the KIDNEY_TOTAL ([…], time 28 day) was 2.9 g, the LIVER ([…], time 7 day) was 12.2 g and the LIVER ([…], time 14 day) was 13.9 g. For the same compound, the LIVER ([…], time 28 day) was 15.4 g, the A/G ([…], time 7 day) was 1.2 and the ALP ([…], time 7 day) was 1819.6 IU/L. It also gave an ALT ([…], time 7 day) of 42.4 IU/L, an AST ([…], time 7 day) of 70.4 IU/L and a BUN ([…], time 7 day) of 19 mg/dL. It also gave a CRE ([…], time 7 day) of 0.2 mg/dL, a Ca ([…], time 7 day) of 10.6 mg/dL and a Cl ([…], time 7 day) of 107.6 meq/L. It also gave a DBIL ([…], time 7 day) of 0 mg/dL, a GLC ([…], time 7 day) of 194.6 mg/dL and an IP ([…], time 7 day) of 7.3 mg/dL. For the same compound, the K ([…], time 7 day) was 4.1 meq/L, the LDH ([…], time 7 day) was 185.6 IU/L and the Na ([…], time 7 day) was 142 meq/L. For the same compound, the PL ([…], time 7 day) was 148.2 mg/dL, the RALB ([…], time 7 day) was 3 g/dL and the TBIL ([…], time 7 day) was 0.002 mg/dL. It also gave a TC ([…], time 7 day) of 76 mg/dL, a TG ([…], time 7 day) of 123.6 mg/dL and a TP ([…], time 7 day) of 5.5 g/dL. It also gave a gamma-GTP ([…], time 7 day) of 1.6 IU/L, an A/G ([…], time 14 day) of 1.1 and an ALP ([…], time 14 day) of 1368.6 IU/L. The ALT ([…], time 14 day) was 35 IU/L, the AST ([…], time 14 day) was 70.2 IU/L and the BUN ([…], time 14 day) was 19.4 mg/dL. For the same compound, the CRE ([…], time 14 day) was 0.2 mg/dL, the Ca ([…], time 14 day) was 10.4 mg/dL and the Cl ([…], time 14 day) was 107.6 meq/L. The DBIL ([…], time 14 day) was 0 mg/dL, the GLC ([…], time 14 day) was 206.6 mg/dL and the IP ([…], time 14 day) was 7.2 mg/dL. The K ([…], time 14 day) was 4 meq/L, the LDH ([…], time 14 day) was 157.8 IU/L and the Na ([…], time 14 day) was 141.8 meq/L. For the same compound, the PL ([…], time 14 day) was 146.8 mg/dL, the RALB ([…], time 14 day) was 2.9 g/dL and the TBIL ([…], time 14 day) was 0.01 mg/dL. For the same compound, the TC ([…], time 14 day) was 79.8 mg/dL, the TG ([…], time 14 day) was 105.2 mg/dL and the TP ([…], time 14 day) was 5.5 g/dL. It also gave a gamma-GTP ([…], time 14 day) of 1.6 IU/L, an A/G ([…], time 28 day) of 1.1 and an ALP ([…], time 28 day) of 1061.2 IU/L. It also gave an ALT ([…], time 28 day) of 36.8 IU/L, an AST ([…], time 28 day) of 59.2 IU/L and a BUN ([…], time 28 day) of 19.6 mg/dL. The CRE ([…], time 28 day) was 0.2 mg/dL, the Ca ([…], time 28 day) was 10.5 mg/dL and the Cl ([…], time 28 day) was 106.4 meq/L. For the same compound, the DBIL ([…], time 28 day) was 0 mg/dL, the GLC ([…], time 28 day) was 203.4 mg/dL and the IP ([…], time 28 day) was 6.9 mg/dL. The K ([…], time 28 day) was 4 meq/L, the LDH ([…], time 28 day) was 130.6 IU/L and the Na ([…], time 28 day) was 141.4 meq/L. It also gave a PL ([…], time 28 day) of 151.8 mg/dL, an RALB ([…], time 28 day) of 3.1 g/dL and a TBIL ([…], time 28 day) of 0.014 mg/dL. For the same compound, the TC ([…], time 28 day) was 78.2 mg/dL, the TG ([…], time 28 day) was 140 mg/dL and the TP ([…], time 28 day) was 5.8 g/dL. It also gave a gamma-GTP ([…], time 28 day) of 2.2 IU/L.
